This experiment relates to IL-1β production in PMA-differentiated THP-1 cells. Nature of the experiment: IL-1β production in PMA-differentiated THP-1 cells stimulated with gramicidin (hTHP-1 assay containing 2% fetal bovine serum). It is filed as cell-based, human. The note with it: 2% fetal bovine serum, read-out: hTHP-1 IC50 (Average IC50 of compounds in hTHP-1 assay). The method, boiled down:
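THP-1 cells were differentiated with PMA 20 ng/ml for 16-18 h, then plated at 50,000 cells/well in RPMI with 2% FBS. They were preincubated 1 h with compound (100–0.0017 μM final, 0.37% DMSO), then stimulated with gramicidin 5 μM for 2 h. Supernatant IL-1β was measured by HTRF.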

[1] abbreviates: Homo sapiens, THP-1, Table B1, class symbols.
Where [2] appears, read: Homo sapiens, THP-1, Table B1, cells printed as numeric bound.

Where two headings read alike, the source gives them in different places.

In the case of `CC(C)c1cc(C#N)cc(C(C)C)c1CC(=O)N=S(N)(=O)c1sc(C(C)(C)O)nc1CO` (stereo not drawn) [Example 22, N-(amino(4-(hydroxymethyl)-2-(2-hydroxypropan-2-yl)thiazol-5-yl)(oxo)-λ^6-sulfaneylidene)-2-(4-cyano-2,6-diisopropylphenyl)acetamide], the IC50 (usually the point on the concentration scale where inhibition reaches its midpoint) under setting [1] fell in the range of 200 to 1000 nM. For the compound `COCc1cc(C(C)C)c(CC(=O)N=S(N)(=O)c2sc(C(C)(C)O)nc2CO)c(C(C)C)c1` (stereo not drawn) [Example 24, 2-(2,6-diisopropyl-4-(methoxymethyl)phenyl)-N-(4-(hydroxymethyl)-2-(2-hydroxypropan-2-yl)thiazole-5-sulfonimidoyl)acetamide], for the setting “Table B1, class symbols”, the IC50 lay within 200 to 1000 nM. Take `CCc1cc(OC(F)F)cc(C(C)C)c1CC(=O)N=S(N)(=O)c1sc(C(C)(C)O)cc1F` (stereo not drawn) [Example 36, 2-(4-(difluoromethoxy)-2-ethyl-6-isopropylphenyl)-N-(3-fluoro-5-(2-hydroxypropan-2-yl)thiophene-2-sulfonimidoyl)acetamide]: for the setting “Table B1, class symbols”, the IC50 was in the range of 200 to 1000 nM. On to `CC(C)c1cc(F)cc(C(C)C)c1C(C)C(=O)N=S(N)(=O)c1cnc(C(C)(C)O)s1` (stereo not drawn) [Example 96, N-(amino(2-(2-hydroxypropan-2-yl)thiazol-5-yl)(oxo)-λ^6-sulfaneylidene)-2-(4-fluoro-2,6-diisopropylphenyl)propanamide], for which, under setting [2], the IC50 is above 30000 nM. For `CC(C)c1cc(-c2ccc3c(c2)COCC3)cc(C(C)C)c1CC(=O)N=S(N)(=O)c1cnc(C(C)(C)O)s1` (stereo not drawn) [Example 97, N-(amino(2-(2-hydroxypropan-2-yl)thiazol-5-yl)(oxo)-λ^6-sulfaneylidene)-2-(4-(isochroman-7-yl)-2,6-diisopropylphenyl)acetamide], the IC50 under setting [1] lay in the range of 200 to 1000 nM.

On to `CC(C)(O)c1ncc(S(N)(=O)=NC(=O)Cc2c(C3CC3)cc(F)cc2C(F)(F)F)s1` (stereo not drawn) [Example 98, N-(amino(2-(2-hydroxypropan-2-yl)thiazol-5-yl)(oxo)-λ^6-sulfaneylidene)-2-(2-cyclopropyl-4-fluoro-6-(trifluoromethyl)phenyl)acetamide], for which, under setting [1], the half-maximal inhibitory concentration (IC50) lay within 5000 to 30000 nM. Consider `CC(C)c1nc(-c2cccc(C(F)(F)F)c2)c(F)c(C(C)C)c1CC(=O)N=S(N)(=O)c1cnc(C(C)(C)O)s1` (stereo not drawn) [Example 100, N-(amino(2-(2-hydroxypropan-2-yl)thiazol-5-yl)(oxo)-λ^6-sulfaneylidene)-2-(5-fluoro-2,4-diisopropyl-6-(3-(trifluoromethyl)phenyl)pyridin-3-yl)acetamide], for which, under setting [1], the IC50 lay in the range of 200 to 1000 nM.

As for `CC(C)c1ccc(F)c(C(C)C)c1CC(=O)N=S(N)(=O)c1cc(C(C)(C)O)cs1` (stereo not drawn) [Example 106, N-(ainino(4-(2-hydroxypropan-2-yl)thiophen-2-yl)(oxo)-λ^6-sulfaneylidene)-2-(3-fluoro-2,6-diisopropylphenyl)acetamide], the IC50 under setting [1] is 40 to 200 nM. Regarding `COCc1cc(C(C)C)c(CC(=O)N=S(N)(=O)c2ncc(C(C)(C)O)s2)c(C(C)C)c1` (stereo not drawn) [Example 111, N-(amino(5-(2-hydroxypropan-2-yl)thiazol-2-yl)(oxo)-λ^6-sulfaneylidene)-2-(2,6-diisopropyl-4-(methoxymethyl)phenyl) acetamide], the IC50 under setting [1] lay within 40 to 200 nM. Take `CC(C)c1cc(-c2ccc3c(c2)OC(F)(F)O3)cc(C(C)C)c1CC(=O)N=S(N)(=O)c1ncc(C(C)(C)O)s1` (stereo not drawn) [Example 117, N-(amino(5-(2-hydroxypropan-2-yl)thiazol-2-yl)(oxo)-λ^6-sulfaneylidene)-2-(4-(2,2-difluorobenzo[d][1,3]dioxol-5-yl)-2,6-diisopropylphenyl) acetamide]: the IC50 under setting [1] was in the range of 40 to 200 nM. As to `CC(C)c1ccc(C#N)c(C(C)C)c1CC(=O)N=S(N)(=O)c1nc(C(C)(C)O)cs1` (stereo not drawn) [Example 120, N-(amino(4-(2-hydroxypropan-2-yl)thiazol-2-yl)(oxo)-λ^6-sulfaneylidene)-2-(3-cyano-2,6-diisopropylphenyl)acetamide], the IC50 under setting [1] is 200 to 1000 nM. Turning to `Cc1ccc(-c2cc(C(C)C)c(CC(=O)N=S(N)(=O)c3ncc(C(C)(C)O)s3)c(C(C)C)c2)cc1C` (stereo not drawn) [Example 121, N-(amino(5-(2-hydroxypropan-2-yl)thiazol-2-yl)(oxo)-λ^6-sulfaneylidene)-2-(3,5-diisopropyl-3′,4′-dimethyl-[1,1′-biphenyl]-4-yl)acetamide], the IC50 under setting [1] was in the range of 200 to 1000 nM. Take `CC(C)c1cc(-c2ccc(Cl)c(Cl)c2)cc(C(C)C)c1CC(=O)N=S(N)(=O)c1ncc(C(C)(C)O)s1` (stereo not drawn) [Example 122, N-(amino(5-(2-hydroxypropan-2-yl)thiazol-2-yl)(oxo)-λ^6-sulfaneylidene)-2-(3′,4′-dichloro-3,5-diisopropyl-[1,1′-biphenyl]-4-yl)acetamide]: the half-maximal inhibitory concentration (IC50) under setting [1] lay in the range of 200 to 1000 nM. For the compound `CC(C)c1ccc(F)c(C(C)C)c1CC(=O)N=S(N)(=O)c1ccc(C(C)(C)O)s1` (stereo not drawn) [Example 125, N-(amino(5-(2-hydroxypropan-2-yl)thiophen-2-yl)(oxo)-λ^6-sulfaneylidene)-2-(3-fluoro-2,6-diisopropylphenyl)acetamide], under setting [1], the IC50 fell in the range of 200 to 1000 nM. Still for that read-out and setting: to `CC(C)c1cc2c(c(C(C)C)c1CC(=O)N=S(N)(=O)c1ccc(CN(C)C)cc1)COC2` (stereo not drawn) [Example 134, N-(amino(4-((dimethylamino)methyl)phenyl)(oxo)-λ^6-sulfaneylidene)-2-(4,6-diisopropyl-1,3-dihydroisobenzofuran-5-yl) acetamide] belongs 1000 to 5000 nM; to `CC(C)c1cc(-c2ccc3c(c2)CCOC3)cc(C(C)C)c1CC(=O)N=S(N)(=O)c1sc(C(C)(C)O)nc1CO` (stereo not drawn) [Example 137, N-(amino(4-(hydroxymethyl)-2-(2-hydroxypropan-2-yl)thiazol-5-yl)(oxo)-λ^6-sulfaneylidene)-2-(4-(isochroman-6-yl)-2,6-diisopropylphenyl)acetamide], 200 to 1000 nM; to `CC(C)c1cc(COC2CCCC2)cc(C(C)C)c1CC(=O)N=S(N)(=O)c1cnc(C(C)(C)O)s1` (stereo not drawn) [Example 141, N-(amino(2-(2-hydroxypropan-2-yl)thiazol-5-yl)(oxo)-λ^6-sulfaneylidene)-2-(4-((cyclopentyloxy)methyl)-2,6-diisopropylphenyl)acetamide], 40 to 200 nM. On to `CC(C)c1cc2c(c(C(C)C)c1CC(=O)N=S(N)(=O)c1cnc(C(C)(C)O)s1)CCC2` (stereo not drawn) [Example 142, N-(amino(2-(2-hydroxypropan-2-yl)thiazol-5-yl)(oxo)-λ^6-sulfaneylidene)-2-(4,6-diisopropyl-2,3-dihydro-1H-inden-5-yl)acetamide], for which the IC50 under setting [1] lay within 1000 to 5000 nM. On to `CC(C)c1ncc(F)c(C(C)C)c1CC(=O)N=S(N)(=O)c1sc(C(C)(C)O)cc1F` (stereo not drawn) [Example 149, N-(amino(3-fluoro-5-(2-hydroxypropan-2-yl)thiophen-2-yl)(oxo)-λ^6-sulfaneylidene)-2-(5-fluoro-2,4-diisopropylpyridin-3-yl) acetamide], for which the IC50 under setting [1] lay in the range of 200 to 1000 nM. For the compound `CC(C)c1nc(C(F)(F)F)nc(C(C)C)c1CC(=O)N=S(N)(=O)c1cnc(C(C)(C)O)s1` (stereo not drawn) [Example 153, N-(amino(2-(2-hydroxypropan-2-yl)thiazol-5-yl)(oxo)-λ^6-sulfaneylidene)-2-(4,6-diisopropyl-2-(trifluoromethyl)pyrimidin-5-yl)acetamide], the IC50 under setting [1] was in the range of 1000 to 5000 nM.

As to `CC(C)c1cnc(F)c(C(C)C)c1CC(=O)N=S(N)(=O)c1cnc(C(C)(C)O)s1` (stereo not drawn) [Example 154, N-(amino(2-(2-hydroxypropan-2-yl)thiazol-5-yl)(oxo)-λ^6-sulfaneylidene)-2-(2-fluoro-3,5-diisopropylpyridin-4-yl)acetamide], under setting [1], the IC50 lay within 5000 to 30000 nM.

As to `CC(C)(O)c1ncc(S(N)(=O)=NC(=O)Cc2c3c(cc4c2CC4)CCC3)s1` (stereo not drawn) [Example 222, N-(amino(2-(2-hydroxypropan-2-yl)thiazol-5-yl)(oxo)-λ^6-sulfaneylidene)-2-(2,4,5,6-tetrahydro-1H-cyclobuta[f]inden-3-yl)acetamide], under setting [1], the 50% inhibitory concentration (IC50) fell in the range of 1000 to 5000 nM. For `CC(C)(O)c1ncc(S(N)(=O)=NC(=O)Cc2c3c(cc4c2CC4)CCC3)s1` [Example 223, (S)- and (R)—N-(amino(2-(2-hydroxypropan-2-yl)thiazol-5-yl)(oxo)-λ^6-sulfaneylidene)-2-(2,4,5,6-tetrahydro-1H-cyclobuta[f]inden-3-yl)acetamide], the IC50 (Table B1, class symbols) lay in the range of 1000 to 5000 nM. For the compound `CC(C)(O)c1ncc(S(N)(=O)=NC(=O)Cc2c3c(cc4c2CC4)CCC3)s1` [Example 224, (S)- and (R)—N-(amino(2-(2-hydroxypropan-2-yl)thiazol-5-yl)(oxo)-λ^6-sulfaneylidene)-2-(2,4,5,6-tetrahydro-1H-cyclobuta[f]inden-3-yl)acetamide], the IC50 under setting [2] was above 30000 nM. With `CC(C)c1ccc(F)c(C(C)C)c1CC(=O)N=S(=O)(NC(=O)Cc1c(C(C)C)ccc(F)c1C(C)C)c1ccc(CN(C)C)nc1` (stereo not drawn) [Example 225, N-(6-((dimethylamino)methyl)-N-(2-(3-fluoro-2,6-diisopropylphenyl)acetyl)pyridine-3-sulfonimidoyl)-2-(3-fluoro-2,6-diisopropylphenyl) acetamide], under setting [1], the IC50 lay within 5000 to 30000 nM. `CC(C)c1cc(C#CC2CCCCC2)cc(C(C)C)c1CC(=O)N=S(N)(=O)c1cc(C(C)(C)O)n(-c2ccccc2)n1` (stereo not drawn) [Example 226, N-(amino(5-(2-hydroxypropan-2-yl)-1-phenyl-1H-pyrazol-3-yl)(oxo)-λ^6-sulfaneylidene)-2-(4-(cyclohexylethynyl)-2,6-diisopropylphenyl)acetamide]: under setting [1], the IC50 is 1000 to 5000 nM. As to `CC(C)c1cc(C(=O)CC2CCCCC2)cc(C(C)C)c1CC(=O)N=S(N)(=O)c1cc(C(C)(C)O)n(-c2ccccc2)n1` (stereo not drawn) [Example 227], under setting [1], the IC50 lay in the range of 1000 to 5000 nM.

These data come from US20230059136A1, “THE COMPOUNDS AND COMPOSITIONS FOR TREATING CONDITIONS ASSOCIATED WITH NLRP ACTIVITY” (Novartis AG, priority 2018, published 2023).
